# In patent US11999759B2, “Boronic acid derivatives and therapeutic uses thereof” (Qpex Biopharma, Inc., priority 2016, dated 2024):
# Read-outs that look alike come from different tables or passages of the source.
# What was measured:
# [1] = molecular target: OXA-23 (Acinetobacter baumannii, UniProt Q9L4P2); test: Inhibition of nitrocefin cleavage by purified OXA-23; assay type: biochemical; settings: nitrocefin reporter substrate; 10 min preincubation at room temperature; read-out: Ki (OXA-23, NCF)
# Chain of OXA-23 (Q9L4P2 18-273): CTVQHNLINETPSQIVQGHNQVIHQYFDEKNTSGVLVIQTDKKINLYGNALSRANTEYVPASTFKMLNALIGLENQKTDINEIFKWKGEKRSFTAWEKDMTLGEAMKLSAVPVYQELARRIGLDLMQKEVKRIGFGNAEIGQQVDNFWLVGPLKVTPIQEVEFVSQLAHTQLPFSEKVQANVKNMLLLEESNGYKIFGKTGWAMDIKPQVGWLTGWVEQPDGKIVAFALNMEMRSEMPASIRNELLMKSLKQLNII
# Protocol: (§1) Ki values of inhibition of purified class A, C and D enzymes were determined spectrophotometrically using nitrocefin as reporter substrate. Purified enzymes were mixed with various concentrations of inhibitors in reaction buffer and incubated for 10 min at room temperature. Nitrocefin was added and substrate cleavage profiles were recorded at 490 nm every 10 sec for 10 min. These experiments confirmed that the described compounds are inhibitors with a broad-spectrum of activity towards various β-lactamases.
# [2] = tested on: PAM1032/KPC-2 (overexpressed MexAB-OprM); test: Biapenem potentiation (MPC64) in PAM1032/KPC-2; assay type: cell-based, Pseudomonas aeruginosa; set-up: PAM1032/KPC-2 Biapenem MPC64: unit not given here; settings: BLI potency to decrease biapenem MIC 64-fold, from 32 to 0.5 μg/ml; efflux proficient strain
# Protocol: (§2) Efflux of BLIs from Pseudomonas aeruginosa by the MexAB-OprM efflux pump was also evaluated. The plasmid expressing the gene encoding KPC-2 was introduced into two strains of P. aeruginosa, PAM1032 and PAM1154 that overexpressed or lacked MexAB-OprM, respectively. Due to expression of KPC-2 both strains became resistant to biapenem. […] Potency of BLIs to potentiate biapenem in these strains was determined. […] The ratio of MPC64 values for each BLI in PAM1032/KPC-2 (efflux proficient) and PAM1154/KPC-2 (efflux deficient) was determined to generate the Efflux Index (EI) as shown in Table 8.
# [3] = molecular target: KPC-2 (Klebsiella pneumoniae, UniProt Q9F663); test: Inhibition of nitrocefin cleavage by purified KPC-2; assay type: biochemical; settings: nitrocefin reporter substrate; 10 min preincubation at room temperature; read-out: Ki (KPC-2, NCF)
# Chain of KPC-2 (Q9F663 25-293 limits assumed): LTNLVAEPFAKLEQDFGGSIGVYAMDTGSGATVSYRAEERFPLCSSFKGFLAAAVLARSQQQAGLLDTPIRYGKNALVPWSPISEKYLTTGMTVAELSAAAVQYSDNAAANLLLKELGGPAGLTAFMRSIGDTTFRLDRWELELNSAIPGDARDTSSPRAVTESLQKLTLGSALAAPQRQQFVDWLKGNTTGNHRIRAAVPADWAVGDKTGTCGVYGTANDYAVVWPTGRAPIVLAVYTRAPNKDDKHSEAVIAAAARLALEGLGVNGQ
# Protocol: as §1
# [4] = molecular target: CTX-M-14 (Escherichia coli, UniProt Q9L5C7); test: Inhibition of nitrocefin cleavage by purified CTX-M-14; assay type: biochemical; settings: nitrocefin reporter substrate; 10 min preincubation at room temperature; read-out: Ki (CTX-M-14, NCF)
# Chain of CTX-M-14 (Q9L5C7 29-291, species assumed): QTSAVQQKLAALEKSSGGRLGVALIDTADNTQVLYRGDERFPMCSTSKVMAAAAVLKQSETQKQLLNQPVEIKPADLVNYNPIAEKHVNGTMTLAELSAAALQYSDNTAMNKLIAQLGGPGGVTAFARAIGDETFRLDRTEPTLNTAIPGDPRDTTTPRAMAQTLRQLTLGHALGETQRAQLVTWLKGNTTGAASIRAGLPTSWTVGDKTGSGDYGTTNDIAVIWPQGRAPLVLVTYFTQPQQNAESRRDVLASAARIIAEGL
# Protocol: as §1, with “min.” for “min. These experiments confirmed that the described compounds are inhibitors with a broad-spectrum of activity towards various β-lactamases.”
# [5] = tested on: PAM1154/KPC-2 (lacked MexAB-OprM); test: Biapenem potentiation (MPC64) in PAM1154/KPC-2; assay type: cell-based, Pseudomonas aeruginosa; set-up: PAM1154/KPC-2 Biapenem MPC64: unit not given here; settings: BLI potency to decrease biapenem MIC 64-fold, from 32 to 0.5 μg/ml; efflux deficient strain
# Protocol: as §2
# [6] = molecular target: P99 (Enterobacter cloacae, UniProt P05364); test: biochemical; settings: nitrocefin reporter substrate; 10 min preincubation at room temperature; read-out: Ki (P99, NCF)
# Chain of P99 (P05364 21-381): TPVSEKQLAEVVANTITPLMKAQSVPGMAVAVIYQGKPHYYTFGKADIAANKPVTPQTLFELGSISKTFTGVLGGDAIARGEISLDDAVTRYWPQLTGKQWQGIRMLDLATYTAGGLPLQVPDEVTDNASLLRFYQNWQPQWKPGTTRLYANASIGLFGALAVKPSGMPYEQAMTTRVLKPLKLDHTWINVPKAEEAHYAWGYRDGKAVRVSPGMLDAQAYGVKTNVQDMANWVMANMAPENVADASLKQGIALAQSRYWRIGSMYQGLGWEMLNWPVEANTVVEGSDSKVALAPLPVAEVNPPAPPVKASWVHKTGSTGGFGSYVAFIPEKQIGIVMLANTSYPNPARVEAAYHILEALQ
# Protocol: as §1, with “min.” for “min. These experiments confirmed that the described compounds are inhibitors with a broad-spectrum of activity towards various β-lactamases.”
# [7] = molecular target: Pa-AmpC (Pseudomonas aeruginosa, UniProt P24735); test: biochemical
# Chain of Pa-AmpC (P24735 27-397): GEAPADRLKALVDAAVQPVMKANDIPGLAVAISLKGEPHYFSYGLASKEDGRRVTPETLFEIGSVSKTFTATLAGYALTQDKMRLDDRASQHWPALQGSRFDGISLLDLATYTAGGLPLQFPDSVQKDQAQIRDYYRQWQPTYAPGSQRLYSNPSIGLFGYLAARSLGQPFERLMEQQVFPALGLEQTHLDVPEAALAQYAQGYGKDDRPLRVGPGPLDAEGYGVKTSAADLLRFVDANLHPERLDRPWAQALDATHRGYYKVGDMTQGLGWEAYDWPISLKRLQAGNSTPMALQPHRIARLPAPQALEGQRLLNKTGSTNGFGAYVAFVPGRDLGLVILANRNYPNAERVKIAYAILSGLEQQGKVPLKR
# Protocol: as §1, with “min.” for “min. These experiments confirmed that the described compounds are inhibitors with a broad-spectrum of activity towards various β-lactamases.”
# [8] = molecular target: VIM-1 (Pseudomonas aeruginosa, UniProt A0A0F7KYQ8); test: Inhibition of nitrocefin cleavage by purified VIM-1; assay type: biochemical; settings: nitrocefin reporter substrate; 10 min preincubation at room temperature; read-out: Ki (VIM-1, NCF)
# [9] = molecular target: IMP-1 (Serratia marcescens, UniProt P52699); test: Inhibition of imipenem cleavage by purified IMP-1; assay type: biochemical; settings: imipenem reporter substrate; 37° C.; read-out: Ki (IMP-1, IMI)
# Chain of IMP-1 (P52699 19-246, looked up, species assumed): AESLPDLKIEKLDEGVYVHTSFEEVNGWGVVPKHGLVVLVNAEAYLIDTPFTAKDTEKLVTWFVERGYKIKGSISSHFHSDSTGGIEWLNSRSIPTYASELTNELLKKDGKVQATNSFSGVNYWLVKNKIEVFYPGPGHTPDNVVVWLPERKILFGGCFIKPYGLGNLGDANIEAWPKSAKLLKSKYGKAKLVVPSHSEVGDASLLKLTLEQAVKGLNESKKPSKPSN
# Protocol: Ki values of inhibition of purified class B enzymes NDM-1 and IMP-1 were determined spectrophotometrically using imipenem as reporter substrate. Purified enzymes were mixed with various concentrations of inhibitors in reaction buffer and incubated for 10 min at room temperature. Imipenem was added and substrate cleavage profiles were recorded at 294 nm every 30 seconds for 30 minutes at 37° C. These experiments further confirmed that the described compounds have the ability to inhibit carbapenemase activity of metallo-beta-lactamases.
# [10] = molecular target: OXA-48 (Klebsiella pneumoniae, UniProt Q6XEC0); test: Inhibition of nitrocefin cleavage by purified OXA-48; assay type: biochemical; settings: nitrocefin reporter substrate; 10 min preincubation at room temperature; read-out: Ki (OXA-48, NCF)
# Chain of OXA-48 (Q6XEC0 23-265, looked up): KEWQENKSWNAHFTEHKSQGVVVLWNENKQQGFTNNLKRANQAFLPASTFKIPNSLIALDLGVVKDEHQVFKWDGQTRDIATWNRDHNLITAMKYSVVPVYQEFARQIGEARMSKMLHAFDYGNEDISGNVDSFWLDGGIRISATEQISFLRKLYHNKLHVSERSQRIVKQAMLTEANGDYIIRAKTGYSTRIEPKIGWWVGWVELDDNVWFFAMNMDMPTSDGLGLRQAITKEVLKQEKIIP
# Protocol: as §1
# [11] = Stability of compound 13 prodrugs in human liver microsomes (HLM); assay type: in vitro ADME; settings: 0.500 mg/mL human liver microsomes, no cofactors, prodrug 1.00 μM; for half-life at 1 μM: pH 7.4, read-out: Estimated half-life (minutes) (rounded to nearest integer value)
# Protocol: In the meantime, a 20.0 mg/mL solution of human liver microsomes (XenoTech, LLC) was diluted to 1.00 mg/mL (2× final concentration). Esterase activity for each lot of microsomes used was established by assaying an unrelated ester prodrug as a control. Both the Eppendorfs for each timepoint and the diluted liver microsomes were then warmed to 37° C. in a water bath. No cofactors (e.g. NADPH) were added to ensure that only hydrolytic reactions as opposed to reactions mediated by other cofactor-dependent enzymes (e.g. CYP450 enzymes) would take place. To initiate the reaction, 50 μL of diluted human liver microsomes was added to tubes for all timepoints using a repeating-tip pipette, thereby bringing the final concentration of test compound to 1.00 μM and the final concentration of human liver microsomes to 0.500 mg/mL. At each timepoint, the reaction was halted and proteins precipitated through the addition of 200 μL of 10:45:45 water:methanol:acetonitrile v/v/v containing an unrelated ester prodrug at 250 ng/mL as an internal standard. […] Sample analysis for microsome stability experiments was conducted using a 20.0 μL injection on a LEAP PAL autosampler with Agilent 1100 binary pump HPLC coupled to an AB Sciex 3200 QTrap mass spectrometer. […] Detection was in positive mode; source parameters and parent-daughter ion selection criteria were chosen as needed for each compound to achieve an appropriate limit of detection and signal-to-noise ratio. The samples were analyzed together with appropriate blanks in order to ensure specificity. The rate of hydrolysis for each prodrug was determined by monitoring the concentration of test compound as follows. The peak area for the analyte was divided by the peak area for the internal standard to give an area ratio. The area ratio for each of the two replicates at each timepoint was divided by the area ratio for timepoint 0 to give the percent remaining at each timepoint. The natural logarithm of the percent remaining versus time for all replicates was plotted using Microsoft Excel and fitted to a linear trendline.
# [12] = molecular target: NDM-1 (Klebsiella pneumoniae, UniProt C7C422); test: Inhibition of imipenem cleavage by purified NDM-1; assay type: biochemical; settings: imipenem reporter substrate; 37° C.; read-out: Ki (NDM-1, IMI)
# Chain of NDM-1 (C7C422 29-270, looked up, species assumed): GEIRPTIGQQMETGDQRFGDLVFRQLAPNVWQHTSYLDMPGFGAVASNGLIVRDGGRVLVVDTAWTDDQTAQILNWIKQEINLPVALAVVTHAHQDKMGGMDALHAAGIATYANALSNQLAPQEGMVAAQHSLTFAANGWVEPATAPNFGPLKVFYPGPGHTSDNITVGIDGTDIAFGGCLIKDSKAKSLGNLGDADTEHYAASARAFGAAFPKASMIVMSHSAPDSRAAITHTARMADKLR
# Protocol: Purified enzymes were mixed with various concentrations of inhibitors in reaction buffer and incubated for 10 min at room temperature. Imipenem was added and substrate cleavage profiles were recorded at 294 nm every 30 seconds for 30 minutes at 37° C.
# [13] = nitrocefin reporter substrate, 10 min preincubation at room temperature, read-out: Ki (Pa-AmpC, NCF)
Average % of initial area ratio at t = 0 min [11],Average % of initial area ratio at t = 5 min [11],Average % of initial area ratio at t = 10 min [11],Average % of initial area ratio at t = 30 min [11],half-life at 1 μM [11],Compound,Ki [1],PAM1032/KPC-2 Biapenem MPC64 [2],Ki [3],Ki [4],PAM1154/KPC-2 Biapenem MPC64 [5],Ki [6],"Ki [7, 13]",Ki [8],Ki [9],Ki [10],Ki [12],Ki [7]
–,–,–,–,–,"O=C(O)c1c(F)ccc2c1OB(O)C1CC21 (stereo not drawn) [Compound 4, 5-Fluoro-2-hydroxy-1a,7b-dihydro-1H-cyclopropa[c][1,2]benzoxaborinine-4-carboxylic acid]",< 100 nM,2.5,< 100 nM,< 100 nM,2.5,< 100 nM,< 100 nM,100 to 1000 nM,> 1000 nM,< 100 nM,–,–
100%,91.4%,80.4%,25.0%,14 min,O=C(OCOC(=O)C1CC1)c1c(F)ccc2c1OB(O)[C@@H]1C[C@H]21 [Compound 27],–,–,–,–,–,–,–,–,–,–,–,–
–,–,–,–,–,"C[C@]1(Cn2ccnn2)[C@H](C(=O)O)N2C(=O)C[C@H]2S1(=O)=O [Tazobactam, reference compound]",100 to 1000 nM,–,> 1000 nM,–,–,–,–,> 1000 nM,> 1000 nM,100 to 1000 nM,> 1000 nM,–
–,–,–,–,–,"COc1ccc2c(c1C(=O)O)OB(O)[C@@H]1C[C@H]21 [Compound 3, (1aR,7bS)-2-hydroxy-5-methoxy-1a,7b-dihydro-1H-cyclopropa[c][1,2]benzoxaborinine-4-carboxylic acid]",< 100 nM,5,< 100 nM,< 100 nM,2.5,< 100 nM,< 100 nM,< 100 nM,< 100 nM,< 100 nM,< 100 nM,–
–,–,–,–,–,"COc1ccc2c(c1C(=O)O)OB(O)C=C2 [Compound 9, 2-Hydroxy-7-methoxy-1,2-benzoxaborinine-8-carboxylic acid]",< 100 nM,>10,< 100 nM,–,1.25,< 100 nM,100 to 1000 nM,> 1000 nM,> 1000 nM,< 100 nM,> 1000 nM,–
–,–,–,–,–,"COc1ccc2c(c1C(=O)O)OB(O)C(F)=C2 [Compound 8, 3-Fluoro-2-hydroxy-7-methoxy-1,2-benzoxaborinine-8-carboxylic acid]",< 100 nM,2.5,< 100 nM,< 100 nM,2.5,< 100 nM,< 100 nM,100 to 1000 nM,> 1000 nM,< 100 nM,–,–
100%,73.4%,55.9%,11.9%,10 min,"CCCC(=O)OCOC(=O)c1c(F)ccc2c1OB(O)[C@@H]1C[C@H]21 [Compound 26, Butanoyloxymethyl (1aR,7bS)-5-fluoro-2-hydroxy-1a,7b-dihydro-1H-cyclopropa[c][1,2]benzoxaborinine-4-carboxylate]",–,–,–,–,–,–,–,–,–,–,–,–
–,–,–,–,–,"COc1ccc2c(c1C(=O)O)OB(O)C1=C2COC1 [Compound 24, 4,4-dihydroxy-7-methoxy-1,3-dihydrofuro[3,4-c][1,2]benzoxaborinine-6-carboxylic acid]",< 100 nM,–,< 100 nM,< 100 nM,–,< 100 nM,< 100 nM,> 1000 nM,> 1000 nM,< 100 nM,100 to 1000 nM,–
–,–,–,–,–,"O=C(O)c1nccc2c1OB(O)[C@@H]1C[C@H]21 [Compound 21, (1aR,7bS)-2-hydroxy-1a,7b-dihydro-1H-cyclopropa[6,7]oxaborinino[2,3-c]pyridine-4-carboxylic acid]",< 100 nM,1.25,100 to 1000 nM,< 100 nM,1.25,100 to 1000 nM,> 1000 nM,100 to 1000 nM,–,< 100 nM,100 to 1000 nM,–
–,–,–,–,–,"O=C(O)c1nccc2c1OB(O)[C@H]1C[C@@H]21 [Compound 20, (1aS,7bR)-2-hydroxy-1a,7b-dihydro-1H-cyclopropa[6,7]oxaborinino[2,3-c]pyridine-4-carboxylic acid]",100 to 1000 nM,5,100 to 1000 nM,< 100 nM,5,> 1000 nM,> 1000 nM,> 1000 nM,–,< 100 nM,> 1000 nM,–
–,–,–,–,–,"O=C(O)[C@H]1/C(=C/CO)O[C@@H]2CC(=O)N21 [Clavulanic Acid, reference compound]",> 1000 nM,–,> 1000 nM,< 100 nM,–,–,–,> 1000 nM,> 1000 nM,> 1000 nM,> 1000 nM,> 1000 nM

Compound,Average % of initial area ratio at t = 0 min [11],Average % of initial area ratio at t = 5 min [11],Average % of initial area ratio at t = 10 min [11],Average % of initial area ratio at t = 30 min [11],half-life at 1 μM [11],Ki [1],PAM1032/KPC-2 Biapenem MPC64 [2],Ki [3],Ki [4],PAM1154/KPC-2 Biapenem MPC64 [5],Ki [6],"Ki [7, 13]",Ki [8],Ki [9],Ki [10],Ki [12],Ki [7]
"CC(=O)OCOC(=O)c1c(F)ccc2c1OB(O)[C@@H]1C[C@H]21 [Compound 28, Acetoxymethyl (1aR,7bS)-5-fluoro-2-hydroxy-1a,7b-dihydro-1H-cyclopropa[c][1,2]benzoxaborinine-4-carboxylate]",100%,50.8%,23.3%,19.6%,15 min,–,–,–,–,–,–,–,–,–,–,–,–
